Assay results published in US8946257B2, “N-containing heteroaryl derivatives as JAK3 kinase inhibitors” (Vectura Limited, priority 2009, dated 2015).

Biological target: T1, catalytic domain of human JAK2 (Homo sapiens, UniProt O60674)
T1 construct: the catalytic domain of human JAK2
Experiment: Inhibition of JAK2 activity (Z'-Lyte Kinase Assay kit-Tyr 6 Peptide)
Type: biochemical
Experimental: The inhibition of JAK2 kinase activity was determined in 384-well assay microplates using the Z′-Lyte® Kinase Assay kit-Tyr 6 Peptide kit, supplied by Invitrogen (Ref: PV4122), following the manufacturer's instructions.
In a final volume of 10 μL per well, 2.5 μL of the product to be tested dissolved in 4% DMSO (final concentration of the product to be tested, 0.1-10000 nM) was incubated with 0.5 μg/well of the catalytic domain of human JAK2, 2 μM of the substrate peptide Z′-Lyte® Tyr 6 and 16 μM of ATP; all components were dissolved in 50 mM pH 7.5 Hepes buffer, 10 mM Magnesium chloride (II), 1 mM EGTA and 0.01% Brij® 35. The reaction was started by the addition of said 16 μM ATP; after incubation for 1 hour at 25° C., 5 μL of A Z′-Lyte® Tyr 6 development reagent was added and the mixture was incubated for 1 hour at 25° C. Phosphorylation was then quantified in each well using a Safire2® fluorescence microplate reader from Tecan.

T1 sequence (O60674 849-1124 limits assumed): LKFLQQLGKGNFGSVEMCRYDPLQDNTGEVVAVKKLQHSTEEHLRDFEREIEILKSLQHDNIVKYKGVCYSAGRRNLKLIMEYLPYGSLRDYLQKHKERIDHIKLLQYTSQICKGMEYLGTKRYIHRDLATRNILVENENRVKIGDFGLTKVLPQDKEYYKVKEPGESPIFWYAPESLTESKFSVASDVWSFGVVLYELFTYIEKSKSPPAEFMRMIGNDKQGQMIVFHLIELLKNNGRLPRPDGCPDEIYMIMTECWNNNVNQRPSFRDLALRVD

Inhibition at 1 µM, > 50%:
CC(=O)N1CCC[C@H](n2c(=O)[nH]c3cnc(-c4cnn5ccc(C)cc45)nc32)C1 [Example 10l]
CS(=O)(=O)N1CCC[C@H](n2c(=O)[nH]c3cnc(-c4cnn5ccccc45)nc32)C1 [Example 9a, (S)-9-(1-(methylsulfonyl)piperidin-3-yl)-2-(pyrazolo[1,5-a]pyridin-3-yl)-7H-purin-8(9H)-one]
N#Cc1ccn2ncc(-c3ncc4[nH]c(=O)n([C@H]5CCCN(C(=O)CO)C5)c4n3)c2c1 [Example 10a]
CC(C)C(=O)N1CCC[C@H](n2c(=O)[nH]c3ccc(-c4cnn5ccccc45)nc32)C1 [Example 8d, (S)-3-(1-isobutyrylpiperidin-3-yl)-5-(pyrazolo[1,5-a]pyridin-3-yl)-1H-imidazo[4,5-b]pyridin-2(3H)-one]
CC(C)(C)NC(=O)N1CCC[C@H](n2c(=O)[nH]c3cnc(-c4cnn5ccc(C#N)cc45)nc32)C1 [Example 26d]
Cc1nc2cnc(-c3cnn4ccc(C#N)cc34)nc2n1C1CCOCC1 [Example 18a]
COCC(=O)N1CCC[C@H](n2c(=O)n(C(=O)COC)c3cnc(-c4cnn5ccc(C)cc45)nc32)C1 [Example 10k]
CCC(=O)N1CCC[C@H](n2c(=O)[nH]c3cnc(-c4cnn5ccc(C)cc45)nc32)C1 [Example 10i]
Cn1c(=O)n(C2CCOCC2)c2nc(-c3cnn4ccccc34)ncc21 [Example 5a, 7-methyl-2-(pyrazolo[1,5-a]pyridin-3-yl)-9-(tetrahydro-2H-pyran-4-yl)-7H-purin-8(9H)-one]
CC(=O)N1CCC(n2c(=O)n(C)c3cnc(-c4cnn5ccc(C(F)(F)F)cc45)nc32)CC1 [Example 5i, 9-(1-acetylpiperidin-4-yl)-7-methyl-2-(5-(trifluoromethyl)pyrazolo[1,5-a]pyridin-3-yl)-7H-purin-8(9H)-one]
Cn1c(=O)n(C2CCOc3c(F)cccc32)c2nc(-c3cnn4ccccc34)ncc21 (stereo not drawn) [Example 4c, 9-(8-fluorochroman-4-yl)-7-methyl-2-(pyrazolo[1,5-a]pyridin-3-yl)-7H-purin-8(9H)-one]
CCC(=O)N1CCC[C@H](n2c(=O)n(C)c3ccc(-c4cnn5ccccc45)nc32)C1 [Example 24c]
COC(=O)[C@H](C)n1c(=O)[nH]c2cnc(-c3cnn4ccccc34)nc21 [Example 3e, methyl (2S)-2-(8-oxo-2-(pyrazolo[1,5-a]pyridin-3-yl)-7,8-dihydro-9H-purin-9-yl)propanoate]
CCC(CC)C(=O)N1CCC[C@H](n2c(=O)[nH]c3cnc(-c4cnn5ccc(C#N)cc45)nc32)C1 [Example 10e]
Cc1ccn2ncc(-c3ncc4[nH]c(=O)n([C@H]5CCCN(C(=O)CO)C5)c4n3)c2c1 [Example 10m]
O=c1[nH]c2cnc(-c3cnn4ccccc34)nc2n1C1CCOc2c(F)cccc21 (stereo not drawn) [Example 3d, 9-(8-fluorochroman-4-yl)-2-(pyrazolo[1,5-a]pyridin-3-yl)-7H-purin-8(9H)-one]
Cc1nc2cnc(-c3cnn4ccc(C#N)cc34)nc2n1C1CCC(F)(F)CC1 [Example 18b]
Cn1c(=O)n([C@H]2CCCN(C(=O)C(C)(C)C)C2)c2nc(-c3cnn4ccccc34)ccc21 [Example 24a]
CC(C)NC(=O)N1CCC[C@H](n2c(=O)[nH]c3cnc(-c4cnn5ccc(C#N)cc45)nc32)C1 [Example 26c]
c1csc(-c2nc3cnc(-c4cnn5ccccc45)nc3n2C2CCOCC2)c1 [Example 21k]
Cn1c(=O)n(C2CCOCC2)c2nc(-c3cnn4ccc(C#N)cc34)ccc21 [Example 5b, 3-(1-methyl-2-oxo-3-(tetrahydro-2H-pyran-4-yl)-2,3-dihydro-1H-imidazo[4,5-b]pyridin-5-yl)pyrazolo[1,5-a]pyridine-5-carbonitrile]
c1ccn2ncc(-c3ncc4nc(C5CC5)n(C5CCOCC5)c4n3)c2c1 [Example 23d]
N#Cc1ccn2ncc(-c3ncc4[nH]c(=O)n([C@H]5CCCN(C(=O)C6CC6)C5)c4n3)c2c1 [Example 10n]
CN(C)CCn1c(=O)n([C@H]2CCCN(C(=O)CC#N)C2)c2nc(-c3cnn4ccc(C#N)cc34)ncc21 [Example 16a]
O=c1[nH]c2cnc(-c3cnn4ccccc34)nc2n1C1CCOCC1 [Example 3, 2-(Pyrazolo[1,5-a]pyridin-3-yl)-9-(tetrahydro-2H-pyran-4-yl)-7H-purin-8(9H)-one]
CC(=O)N1CCC[C@H](n2c(=O)n(C)c3cnc(-c4cnn5ccccc45)nc32)C1 [Example 26g]
Cn1c(=O)n(C2CCC(F)(F)CC2)c2nc(-c3cnn4ccc(C#N)cc34)ncc21 [Example 5e, 3-(9-(4,4-difluorocyclohexyl)-7-methyl-8-oxo-8,9-dihydro-7H-purin-2-yl)pyrazolo[1,5-a]pyridine-5-carbonitrile]
N#Cc1ccn2ncc(-c3ncc4[nH]c(=O)n([C@H]5CCCN(C(=O)CC(F)(F)F)C5)c4n3)c2c1 [Example 10h]
C[C@@H](C(=O)N(C)C)n1c(=O)[nH]c2cnc(-c3cnn4ccccc34)nc21 [Example 15k]
CC(C)(O)C(=O)N1CCC[C@H](n2c(=O)[nH]c3cnc(-c4cnn5ccc(C#N)cc45)nc32)C1 [Example 10b]
N#Cc1ccn2ncc(-c3ncc4[nH]c(=O)n([C@H]5CCCN(S(=O)(=O)CC(F)(F)F)C5)c4n3)c2c1 [Example 9c, (S)-3-(8-oxo-9-(1-(2,2,2-trifluoroethylsulfonyl)piperidin-3-yl)-8,9-dihydro-7H-purin-2-yl)pyrazolo[1,5-a]pyridine-5-carbonitrile]
CC(C)(C)OC(=O)N1CCC[C@H](n2c(=O)[nH]c3cnc(-c4cnn5ccccc45)nc32)C1 [Example 3b, (S)-tert-butyl 3-(8-oxo-2-(pyrazolo[1,5-a]pyridin3-yl)-7H-purin-9(8H)-yl)piperidine-1-carboxylate]
Cn1c(=O)n(C2CCS(=O)(=O)C2)c2nc(-c3cnn4ccc(C#N)cc34)ncc21 (stereo not drawn) [Example 5f, 3-(9-(1,1-dioxotetrahydrothien-3-yl)-8,9-dihydro-7-methyl-8-oxopurin-2-yl)pyrazolo[1,5-a]pyridine-5-carbonitrile]
CC(=O)n1c(=O)n([C@H]2CCCN(C(=O)CC#N)C2)c2nc(-c3cnn4ccccc34)ncc21 [Example 26f]
Cn1c(=O)n([C@H]2CCCN(C(=O)OC(C)(C)C)C2)c2nc(-c3cnn4ccccc34)ncc21 [Example 5, (S)-tert-Butyl 3-(7-methyl-8-oxo-2-(pyrazolo[1,5-a]pyridine-3-yl)-7H-purin-9(8H)-yl)piperidine-1-carboxylate]
CCC(=O)Nc1nc2cnc(-c3cnn4ccccc34)nc2n1C1CCOCC1 [Example 34b]
N#CCC(=O)N1CCC[C@H](n2c(=O)[nH]c3ccc(-c4cnn5ccccc45)nc32)C1 [Example 7p, (S)-3-oxo-3-(3-(2-oxo-5-(pyrazolo[1,5-a]pyridin-3-yl)-1H-imidazo[4,5-b]pyridin-3(2H)-yl)piperidin-1-yl)propanenitrile]
CCOC(=O)N1CCC[C@H](n2c(=O)[nH]c3cnc(-c4cnn5ccc(C#N)cc45)nc32)C1 [Example 26a]
N#Cc1ccn2ncc(-c3ncc4[nH]c(=O)n([C@H]5CCCN(C(=O)C6(O)CC6)C5)c4n3)c2c1 [Example 27a]
Cc1ccn2ncc(-c3ncc4[nH]c(=O)n([C@H]5CCCN(S(C)(=O)=O)C5)c4n3)c2c1 [Example 9g, (S)-2-(5-methylpyrazolo[1,5-a]pyridin-3-yl)-9-(1-(methylsulfonyl)piperidin-3-yl)-7H-purin-8(9H)-one]
Cn1c(=O)n([C@H]2CCCN(S(C)(=O)=O)C2)c2nc(-c3cnn4ccccc34)ccc21 [Example 9f, (S)-1-methyl-3-(1-(methylsulfonyl)piperidin-3-yl)-5-(pyrazolo[1,5-a]pyridin-3-yl)-1H-imidazo[4,5-b]pyridin-2(3H)-one]
COCCn1c(=O)n(C2CCOCC2)c2nc(-c3cnn4ccc(C#N)cc34)ncc21 [Example 16, 3-(7-(2-Methoxyethyl)-8-oxo-9-(tetrahydro-2H-pyran-4-yl)-8,9-dihydro-7H-purin-2-yl)pyrazolo[1,5-a]pyridine-5-carbonitrile]
Cn1c(=O)n(Cc2ccccc2F)c2nc(-c3cnn4ccc(C#N)cc34)ncc21 [Example 5h, 3-(9-(2-fluorobenzyl)-7-methyl-8-oxo-8,9-dihydro-7H-purin-2-yl)pyrazolo[1,5-a]pyridine-5-carbonitrile]
CCCS(=O)(=O)N1CCC[C@H](n2c(=O)[nH]c3cnc(-c4cnn5ccc(C#N)cc45)nc32)C1 [Example 9b, (S)-3-(8-oxo-9-(1-(propylsulfonyl)piperidin-3-yl)-8,9-dihydro-7H-purin-2-yl)pyrazolo[1,5-a]pyridine-5-carbonitrile]
CCNC(=O)[C@@H](C)n1c(=O)[nH]c2cnc(-c3cnn4ccc(C#N)cc34)nc21 [Example 15f]
